Tests used:
CtRocCOR [1] = target: T1, CtRocCOR (Chlorobaculum tepidum, UniProt Q8KC98); test: DEER pulse EPR inter-spin distance change upon nucleotide binding; details: 1 mM GppNHp, 150 mM NaCl, 30 mM Tris/HCl, 5 mM MgCl2, pH 7.5, 5% glycerol, 50 K; protein spin-labelled with MTSSL at native Cys600 (C600R1)
T1 construct: gene CT1526; RocCOR tandem, AA 412-946, recombinant, homodimer; MTSSL spin-labelled for EPR

CtRocCOR [2] = target: T1, CtRocCOR; test: GTPase activity assay; assay type: biochemical

T1 sequence (Q8KC98 entry or part of it): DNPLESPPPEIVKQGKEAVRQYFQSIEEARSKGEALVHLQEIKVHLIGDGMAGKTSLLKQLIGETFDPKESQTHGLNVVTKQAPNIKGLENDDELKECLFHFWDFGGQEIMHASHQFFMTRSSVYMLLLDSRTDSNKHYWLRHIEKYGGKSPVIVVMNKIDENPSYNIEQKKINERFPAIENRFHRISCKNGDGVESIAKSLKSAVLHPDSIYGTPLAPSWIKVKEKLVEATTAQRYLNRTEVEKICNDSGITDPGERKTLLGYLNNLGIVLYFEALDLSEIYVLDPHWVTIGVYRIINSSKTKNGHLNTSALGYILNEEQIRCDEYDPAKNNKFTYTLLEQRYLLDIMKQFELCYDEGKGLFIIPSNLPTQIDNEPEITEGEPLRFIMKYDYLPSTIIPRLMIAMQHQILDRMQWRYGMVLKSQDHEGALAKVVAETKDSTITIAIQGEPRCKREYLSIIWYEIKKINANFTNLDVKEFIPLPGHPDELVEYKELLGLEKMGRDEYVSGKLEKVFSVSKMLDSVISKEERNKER

SMILES: Nc1nc2c(ncn2[C@@H]2O[C@H](COP(=O)(O)OP(=O)(O)NP(=O)(O)O)[C@@H](O)[C@H]2O)c(=O)[nH]1 [GppNHp]
- DEER pulse EPR inter-spin distance change upon nucleotide binding (CtRocCOR [1]): in the presence of GppNHp, GDP·AlFx or GDP (Figure 2c) reveal changes upon nt binding

SMILES: Nc1nc2c(ncn2[C@@H]2O[C@H](COP(=O)(O)OP(=O)(O)OP(=O)(O)O)[C@@H](O)[C@H]2O)c(=O)[nH]1 [GTP]
- GTPase activity assay (CtRocCOR [2]): No significant impairment of GTPase activity by the mutations in comparison with wild-type
